For experiment [1], the target named is T1, p75^NTR receptors (PC12 cells) (Rattus norvegicus, UniProt P07174).
T1 construct: endogenous in cells; host or cells: PC12 cells
T1 sequence (P07174 30-425): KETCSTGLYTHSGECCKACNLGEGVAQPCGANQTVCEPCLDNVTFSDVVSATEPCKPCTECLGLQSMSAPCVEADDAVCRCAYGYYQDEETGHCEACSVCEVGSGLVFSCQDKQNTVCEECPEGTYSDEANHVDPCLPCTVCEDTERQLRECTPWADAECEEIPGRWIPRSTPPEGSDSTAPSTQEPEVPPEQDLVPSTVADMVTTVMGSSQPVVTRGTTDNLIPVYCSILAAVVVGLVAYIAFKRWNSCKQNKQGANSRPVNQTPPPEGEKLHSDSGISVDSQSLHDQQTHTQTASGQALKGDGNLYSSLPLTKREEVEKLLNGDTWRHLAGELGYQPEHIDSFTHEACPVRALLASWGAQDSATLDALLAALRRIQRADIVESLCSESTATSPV
T1 sequence (P23560 129-247 partner): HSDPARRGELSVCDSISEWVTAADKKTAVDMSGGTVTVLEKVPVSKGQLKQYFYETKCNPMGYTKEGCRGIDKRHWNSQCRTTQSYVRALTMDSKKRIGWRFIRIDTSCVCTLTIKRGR
Description: Basic screening assay: binding of 125I-BDNF to PC12 cells. To be noted: read-out: BDNF Activity % Maximal Binding. Here is the method:
(§1) The compounds were screened for effects on binding of ^125I-BDNF or ^125I-NGF to PC12 cells (p75^NTR receptors), and those that inhibited binding were further tested to determine the EC50 for this inhibition.
(§2) PC12 cells were cultured and prepared for binding assays as described in Example 1.
(§3) Lypophilized Peprotech human recombinant BDNF (Cedarlane Laboratories, Toronto, Canada, cat. # PE 450-02-10) was reconstituted under sterile conditions to 3.5 μM in sterile HKR/1%BSA, and either used immediately or stored in aliquots of 20 μl at −80° C. Immediately prior to use, a 15 nM (30×) solution of ^125I-BDNF or ^125I-NGF was prepared in HKR buffer, and was used at 0.5 nM final concentration.
(§4) Test Compounds were dissolved to 10 mM in DMSO, and those that were not initially soluble were warmed to 40-50° C. and vortexed. Those compounds that were still not in solution were reported as such. Compounds were then stored in this form at −20° C. until use. Immediately before experiments, 100 mM compounds were diluted to 10 mM in DMSO (1:10), followed by a further dilution to 1 mM (1:10) with distilled water, and a further dilution to 500 μM (1:1) with HKR.
(§5) Assays to determine maximum binding (Bmax), non-specific binding (NSB), and binding in the presence of each test compound (e.g., x, y) were performed at least in duplicate. In a total volume of 300 μL, 4×10^6 PC12 cells were incubated, rotating for 2 h at 4° C. with the following:
(§6) At the conclusion of the binding reaction, 100 μL aliquots of the reaction mixtures were carefully layered over 200 μL of a 10% glycerol solution in a 0.4 mL tube, and subjected to centrifugation in a microcentrifuge for 2 minutes at half maximum speed. The cell pellets containing the bound ^125I-BDNF or ^125I-NGF were then measured using a gamma counter. The mean values of the replicates were then calculated to determine the value for maximum binding (Bmax) and nonspecific binding (NSB), and binding in the presence of test compound at 50 μM (Bx). Specific binding (SB) was measured by subtracting the NSB from the Bmax.

Experiment [2] deals with p75^NTR receptors (PC12 cells). Description: Basic screening assay: binding of 125I-NGF to PC12 cells. To be noted: Table 1; test compound 50 μM; 0.5 nM 125I-NGF; PC12 cells; 2 h at 4° C.; specific binding as percent of control. Here is the method: as §1, §2
Lyophilized Serotec mouse 2.5S NGF (Cedarlane Laboratories, Toronto, Canada, cat. # PMP 04Z) was reconstituted under sterile conditions to 1 mg/mL (38 μM) in sterile 0.2% acetic acid, and 100 μL or 50 μL aliquots were stored frozen at −80° C.
as §3, §4, §5
as §6, with “Bmax. Specific binding in the presence of the test compound (SBx) was determined by subtracting the NSB from the Bx for each test compound; and each SBx was divided by SB and multiplied by 100 to give the specific binding in the presence of the compound as a percent of control specific binding.” for “Bmax.”

[3] abbreviates: Table 1, test compound 50 μM, 0.5 nM 125I-BDNF, PC12 cells, 2 h at 4° C., specific binding as percent of control.

Read-outs that look alike come from different tables or passages of the source.

As to `O=C1NC(=S)NC(=O)C1=Cc1ccc(-c2ccc([N+](=O)[O-])cc2Br)o1` [Compound 1, 5-[5-(2-Bromo-4-nitrophenyl)furan-2-ylmethylene]-2-thioxo-dihydro-pyrimidine-4,6-dione], the activity at 50 µM in experiment [1] fell in the range of 0 to 10%. In addition, the “NGF Activity % Maximal Binding” value in experiment [2] was “* (50 < *)”.

On to `Cc1ccc([N+](=O)[O-])cc1-c1ccc(/C=C2/SC(=S)NC2=O)o1` [Compound 2, 5-[5-(2-Methyl-5-nitrophenyl)furan-2-ylmethylene]-2-thioxo-thiazolidin-4-one], for which, in experiment [1] (setting [3]), the activity at 50 µM was in the range of 0 to 10%. Moreover, in experiment [2], the “NGF Activity % Maximal Binding” value was “* (50 < *)”.

As to `O=C1NC(=S)NC(=O)C1=Cc1ccc(-c2ccc([N+](=O)[O-])cc2Cl)o1` [Compound 4, 5-[5-(2-Chloro-4-nitrophenyl)furan-2-ylmethylene]-2-thioxo-dihydro-pyrimidine-4,6-dione], the activity at 50 µM in experiment [1] lay within 0 to 10%. The “NGF Activity % Maximal Binding” value in experiment [2] is reported as “* (50 < *)”.

Consider `O=C1NC(=S)S/C1=C/c1ccc(-c2ccc([N+](=O)[O-])cc2Cl)o1` [Compound 5, 5-[5-(2-Chloro-4-nitrophenyl)furan-2-ylmethylene]-2-thioxo-thiazolidin-4-one], for which the activity at 50 µM in experiment [1] (setting [3]) fell in the range of 0 to 10%. Further, in experiment [2], the “NGF Activity % Maximal Binding” value is “* (50 < *)”.

For the compound `O=C1NC(=S)NC(=O)C1=Cc1ccc(-c2ccc(C(=O)O)cc2)o1` [Compound 6, 4-[5-(4,6-Dioxo-2-thioxo-tetrahydro-pyrimidin-5-ylidenemethyl)furan-2-yl]benzoic acid], in experiment [1], the activity at 50 µM fell in the range of 0 to 10%. In addition, the “NGF Activity % Maximal Binding” value in experiment [2] was “* (50 < *)”.

With `Cc1cc([N+](=O)[O-])ccc1-c1ccc(C=C2SC(=S)NC2=O)o1` [Compound 7, 5-[5-(2-Methyl-4-nitrophenyl)furan-2-ylmethylene]-2-thioxo-thiazolidin-4-one], in experiment [1] (setting [3]), the activity at 50 µM is 0 to 10%. In addition, the “NGF Activity % Maximal Binding” value in experiment [2] is “* (50 < *)”.

Regarding `COc1ccc(-c2ccc(C=C3C(=O)NC(=S)NC3=O)o2)cc1[N+](=O)[O-]` [Compound 8, 5-[5-(4-Methoxy-3-nitrophenyl)furan-2-ylmethylene]-2-thioxo-dihydro-pyrimidine-4,6-dione], the activity at 50 µM in experiment [1] was 0 to 10%. For the same compound, the “NGF Activity % Maximal Binding” value in experiment [2] is recorded as “* (50 < *)”.

As to `Cc1cccc(N2NC(=O)C(=Cc3ccc(-c4ccc(S(N)(=O)=O)cc4)o3)C2=O)c1` [Compound 9, 4-[5-(3,5-Dioxo-1-m-tolyl-pyrazolidin-4-ylidenemethyl)furan-2-yl]benzenesulfonamide], the activity at 50 µM in experiment [1] (setting [3]) is 0 to 10%. For the same compound, the “NGF Activity % Maximal Binding” value in experiment [2] is recorded as “* (50 < *)”.

On to `O=C(O)CCN1C(=O)C(=Cc2ccc(-c3ccc([N+](=O)[O-])cc3)o2)SC1=S` [Compound 10, 3-{5-[5-(4-Nitrophenyl)furan-2-ylmethylene]-4-oxo-2-thioxo-thiazolidin-3-yl}-propionic acid], for which the activity at 50 µM in experiment [1] (setting [3]) fell in the range of 0 to 10%. Besides, in experiment [2], the “NGF Activity % Maximal Binding” value is “* (50 < *)”.

As to `O=C1NC(=O)C(=Cc2ccc(-c3ccc([N+](=O)[O-])cc3Cl)o2)C(=O)N1` [Compound 11, 5-[5-(2-Chloro-4-nitrophenyl)furan-2-ylmethylene]-pyrimidine-2,4,6-trione], the activity at 50 µM in experiment [1] lay in the range of 0 to 10%. Besides, the “NGF Activity % Maximal Binding” value in experiment [2] is “* (50 < *)”.

As to `CCCCOC(=O)c1ccc(-c2ccc(/C=C3/SC(=S)N(CC(=O)O)C3=O)o2)cc1` [Compound 12, 4-[5-(3-Carboxymethyl-4-oxo-2-thioxo-thiazolidin-5-ylidenemethyl)furan-2-yl]benzoic acid butyl ester], the activity at 50 µM in experiment [1] (setting [3]) lay within 0 to 10%. For the same compound, the “NGF Activity % Maximal Binding” value in experiment [2] was “* (50 < *)”.

With `O=C(O)c1ccc(Cl)c(-c2ccc(/C=C3/NC(=O)N(Cc4ccc(F)cc4)C3=O)o2)c1` [Compound 13, 4-Chloro-3-{5-[1-(4-fluorobenzyl)-2,5-dioxo-imidazolidin-4-ylidenemethyl]furan-2-yl}benzoic acid], the activity at 50 µM in experiment [1] (setting [3]) fell in the range of 0 to 10%. Further, the “NGF Activity % Maximal Binding” value in experiment [2] is listed as “* (50 < *)”.

As to `Cc1ccc(-c2ccc(/C=C3/SC(=S)N(CC(=O)O)C3=O)o2)cc1[N+](=O)[O-]` [Compound 14, {5-[5-(4-Methyl-3-nitrophenyl)furan-2-ylmethylene]-4-oxo-2-thioxo-thiazolidin-3-yl}-acetic acid], the activity at 50 µM in experiment [1] (setting [3]) fell in the range of 0 to 10%. In addition, the “NGF Activity % Maximal Binding” value in experiment [2] is “* (50 < *)”.

In the case of `Cc1cc(-c2ccc(C=C3SC(=S)N(CC(=O)O)C3=O)o2)ccc1[N+](=O)[O-]` [Compound 15, {5-[5-(3-Methyl-4-nitrophenyl)furan-2-ylmethylene]-4-oxo-2-thioxo-thiazolidin-3-yl}-acetic acid], in experiment [1] (setting [3]), the activity at 50 µM lay in the range of 0 to 10%.

Regarding `Cc1ccc(C(=O)O)cc1-c1ccc(/C=C2/NC(=O)N(c3ccccc3)C2=O)o1` [Compound 16, 3-[5-(2,5-Dioxo-1-phenyl-imidazolidin-4-ylidenemethyl)furan-2-yl]-4-methylbenzoic acid], the activity at 50 µM in experiment [1] (setting [3]) was in the range of 0 to 10%. The “NGF Activity % Maximal Binding” value in experiment [2] is recorded as “* (50 < *)”.

With `CN1C(=O)NC(=O)C(=Cc2ccc(-c3ccc(C(=O)O)cc3)o2)C1=O` [Compound 17, 4-[5-(1-Methyl-2,4,6-trioxo-tetrahydro-pyrimidin-5-ylidenemethyl)furan-2-yl]benzoic acid], the activity at 50 µM in experiment [1] lay within 0 to 10%. Further, the “NGF Activity % Maximal Binding” value in experiment [2] is recorded as “* (50 < *)”.

On to `Cc1cc([N+](=O)[O-])c(C)cc1-c1ccc(C=C2C(=O)NC(=O)NC2=O)o1` [Compound 18, 5-[5-(2,5-Dimethyl-4-nitrophenyl)furan-2-ylmethylene]-pyrimidine-2,4,6-trione], for which, in experiment [1], the activity at 50 µM lay in the range of 0 to 10%. Moreover, the “NGF Activity % Maximal Binding” value in experiment [2] was “* (50 < *)”.

On to `COC(=O)c1ccc(-c2ccc(C=C3C(=O)NC(=S)NC3=O)o2)cc1` [Compound 19, 4-[5-(4,6-Dioxo-2-thioxo-tetrahydro-pyrimidin-5-ylidenemethyl)furan-2-yl]benzoic acid methyl ester], for which the activity at 50 µM in experiment [1] was 0 to 10%. In addition, the “NGF Activity % Maximal Binding” value in experiment [2] was “* (50 < *)”.

On to `COc1ccc(-c2ccc(/C=C3\SC(=S)NC3=O)o2)cc1[N+](=O)[O-]` [Compound 20, 5-[5-(4-Methoxy-3-nitrophenyl)furan-2-ylmethylene]-2-thioxo-thiazolidin-4-one], for which, in experiment [1] (setting [3]), the activity at 50 µM is 0 to 10%. Moreover, the “NGF Activity % Maximal Binding” value in experiment [2] was “* (50 < *)”.

In the case of `CCOC(=O)CN1C(=O)S/C(=C/c2ccc(-c3cc(C(=O)O)ccc3C)o2)C1=O` [Compound 21, 3-[5-(3-Ethoxycarbonylmethyl-2,4-dioxo-thiazolidin-5-ylidenemethyl)furan-2-yl]-4-methylbenzoic acid], in experiment [1] (setting [3]), the activity at 50 µM lay in the range of 0 to 10%. Moreover, the “NGF Activity % Maximal Binding” value in experiment [2] is listed as “* (50 < *)”.

`Cc1ccc(C(=O)O)cc1-c1ccc(/C=C2/NC(=O)NC2=O)o1` [Compound 22, 3-[5-(2,5-Dioxo-imidazolidin-4-ylidenemethyl)furan-2-yl]-4-methylbenzoic acid]: the activity at 50 µM in experiment [1] (setting [3]) was in the range of 0 to 10%. For the same compound, the “NGF Activity % Maximal Binding” value in experiment [2] was “* (50 < *)”.

The values above are taken from patent US20050282840A1, “Methods of modulating neurotrophin-mediated activity” (PainCeptor Pharma Corporation, priority 2004, published 2005).
